Assay results reported in BindingDB's records for doi:10.1021/jm000484+ (Abbott Laboratories, 2001).

Experiments:
[1] = In vitro immunosuppression in stimulated T cells expressing Voltage-gated potassium channel subunit Kv1.3; Range is 1-10
[2] = In vitro immunosuppression in stimulated T cells expressing Voltage-gated potassium channel subunit Kv1.3

SMILES | IC50 [1] | EC50 [2]
CCNC(=O)c1cc(/C=C/CCc2ccccc2)ccc1-c1ccc(Cl)cc1 [4'-Chloro-4-((E)-4-phenyl-but-1-enyl)-biphenyl-2-carboxylic acid ethylamide] | 1 µM | –
CCC/N=c1\ccn(Cc2ccccc2)c2cc(Cl)ccc12 | – | 1 µM
